# Tested on: human fetal lung fibroblasts (IMR-90), fibronectin
# Experiment: TGF-β-mediated fibronectin expression
# Assay type: cell-based
# Details: 1 h pre-treatment, then TGF-β1 (2 ng/ml) 72 h
# Description: Fibronection was measured as secreted fragments in the conditioned media. Equal amounts (14 μg) of total proteins from the conditioned media were loaded in each lane.
sequence,measurement,value
YARAAARQARAKALNRQLGVA (Mammalian) [MMI-0200],protein level of fibronectin (secreted fragments in conditioned media),no changes in the protein level

# Reference: patent US10500249B2, “Compositions and methods for preventing or treating diseases, conditions, or processes characterized by aberrant fibroblast proliferation and extracellular matrix deposition” (MOERAE MATRIX, INC., priority 2014, dated 2019)
